Measured values published in US5242938A, “Derivatives of virginiamycin M1” (Merck & Co., Inc., priority 1992, dated 1993).
Values after ≈ are worked out from the molar mass of the structure shown. Where two headings read alike, the source gives them in different places.

Key:
[1] = target: T1, CCK-B (guinea pig cortex) (Cavia porcellus, UniProt H0VZC5); assay: [125I]BHCCK-8 radioligand binding, guinea pig cortical preparation; details: read-out: CCK binding inhibition - IC50, [125I]BHCCK
T1 construct: guinea pig cortical preparations; from tissue; host or cells: guinea pig brain cortex membranes
T1 sequence (H0VZC5 1-426): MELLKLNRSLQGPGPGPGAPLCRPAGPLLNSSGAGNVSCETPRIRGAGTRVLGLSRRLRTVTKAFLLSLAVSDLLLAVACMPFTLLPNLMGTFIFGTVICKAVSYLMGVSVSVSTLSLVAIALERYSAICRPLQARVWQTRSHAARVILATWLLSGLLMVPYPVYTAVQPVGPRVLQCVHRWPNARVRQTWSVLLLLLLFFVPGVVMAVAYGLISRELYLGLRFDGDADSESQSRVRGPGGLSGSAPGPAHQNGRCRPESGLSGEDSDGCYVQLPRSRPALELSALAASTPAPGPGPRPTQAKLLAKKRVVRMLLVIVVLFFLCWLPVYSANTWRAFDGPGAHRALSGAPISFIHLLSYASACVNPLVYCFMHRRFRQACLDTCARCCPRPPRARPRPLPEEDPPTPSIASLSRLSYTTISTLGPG
Procedure: (§1) The resulting supernatant was re-spun at 20,000×g for 20 minutes. […] Incubations were for 40 minutes at 4° C. and were terminated by filtration and washing with ice cold 100 mM saline. […] Incubations were for 30 minutes at room temperature and were terminated by filtration over GF/C filters and washing with 100 mM NaCl.

[2] = target: T1, CCK-B (guinea pig cortex); assay: [3H]L-365,260 CCK-B selective antagonist ligand binding, brain membranes; details: for percentage in parentheses beside >3.0, [3H]L-365,260 (inhibition at top concentration, not defined): beside IC50 >3.0; for IC50: read-out: CCK binding inhibition - IC50, [3H]L-365,260
Procedure: as §1

[3] = target: T2, CCK-A (rat pancreas) (Rattus norvegicus, UniProt P30551); assay: [125I]BHCCK-8 radioligand binding, rat pancreatic preparation; details: read-out: CCK binding inhibition - IC50, [125I]BHCCK
T2 construct: from tissue; host or cells: rat pancreas
T2 sequence (P30551 1-444): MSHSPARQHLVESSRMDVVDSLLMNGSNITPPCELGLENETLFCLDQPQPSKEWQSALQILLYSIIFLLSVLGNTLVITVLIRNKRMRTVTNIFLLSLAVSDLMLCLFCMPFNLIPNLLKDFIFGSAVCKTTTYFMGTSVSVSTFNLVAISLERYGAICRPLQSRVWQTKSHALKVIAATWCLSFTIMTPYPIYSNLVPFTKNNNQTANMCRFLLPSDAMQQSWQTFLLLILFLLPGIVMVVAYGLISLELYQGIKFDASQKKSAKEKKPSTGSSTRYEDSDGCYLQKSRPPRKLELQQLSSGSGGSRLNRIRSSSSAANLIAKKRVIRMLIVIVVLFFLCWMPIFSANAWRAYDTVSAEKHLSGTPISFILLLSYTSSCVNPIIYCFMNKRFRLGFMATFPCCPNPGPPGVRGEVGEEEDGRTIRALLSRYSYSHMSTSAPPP
Procedure: as §1

[4] = target: T2, CCK-A (rat pancreas); assay: [3H]L-364,718 CCK-A selective antagonist ligand binding, pancreas; details: read-out: CCK binding inhibition - IC50, [3H]L-364,718
Procedure: as §1

[5] = test system: Bacillus sp. (Mb 633); assay: Agar diffusion disc assay, Baci 633; type: cell-based; details: Bacillus, 18 h, @ 20 g/disc; read-out: Inhibition zone diameter, Baci 633
Procedure: (§2) Cultures employed in evaluating antimicrobial activity included plant pathogens, human and animal opportunistic pathogens and selected laboratory strains having specific-antibiotic sensitivities or chromosomal or R-plasmid-mediated resistances. […] The agar diffusion MIC's were determined using the method described by Barry in Anitbiotics in Laboratory Medicine, 2nd Ed., Ed. V. Lorian, pp. 1-63, William & Wilkins, Baltimore, 1986. Each test compound was dissolved in methanol to a concentration of 1 mg/ml. Serial dilutions of these compounds were also made to determine an agar diffusion MIC. 20 μl of each dilution was pipetted on to 6 mm paper discs, air dried and placed onto the surface of an agar plate seeded with the appropriate bacteria (~10^6 cfu). Seeded agar plates were incubated overnight (~18 hours) at 25° C. Zone sizes were measured to the nearest mm. Each compound was tested in triplicate and the results shown represent the mean.

[6] = test system: Staphylococcus aureus (Mb 108, ATCC 6538P); assay: Agar diffusion disc assay, Sta 108; type: cell-based; details: Staphylococcus aureus, ATCC6538P, 18 h; @ 20 g/disc; read-out: Inhibition zone diameter, Sta 108
Procedure: as §2

[7] = test system: Bacillus subtilis (Mb 964, ATCC 6633); assay: Agar diffusion disc assay, Subt 964; type: cell-based; details: Bacillus subtilis, ATCC6633, 18 h; @ 20 g/disc; read-out: Inhibition zone diameter, Subt 964
Procedure: as §2

[8] = test system: Micrococcus luteus (Mb 1101, ATCC 9341); assay: Agar diffusion disc assay, Micr 1101; type: cell-based; details: Micrococcus luteus; for MIC: read-out: Agar Diffusion MIC versus Micrococcus luteus; for zone of inhibition at 5 µg/disc: 5.00 μg/disc; for zone of inhibition at 10 µg/disc: 10.0 μg/disc
Procedure: as §2

[9] = test system: Staphylococcus aureus (Mb 2983); assay: Agar diffusion disc assay, Sta 2983; type: cell-based; details: Staphylococcus aureus, 18 h; @ 20 g/disc; read-out: Inhibition zone diameter, Sta 2983
Procedure: as §2

[10] = test system: Corynebacterium pseudodiphtheriticum (Mb 261, ATCC 9742); assay: Agar diffusion disc assay, Cory 261; type: cell-based; details: Corynebacterium pseudodiphtheriticum, ATCC9742, 18 h; @ 20 g/disc; read-out: Inhibition zone diameter, Cory 261
Procedure: as §2

[11] = test system: Streptococcus faecium (Mb 2820); assay: Agar diffusion disc assay, Str 2820; type: cell-based; details: Enterococcus faecium, 18 h; @ 20 g/disc; read-out: Inhibition zone diameter, Str 2820
Procedure: as §2

[12] = test system: Streptococcus agalactiae (Mb 2875); assay: Agar diffusion disc assay, Str 2875; type: cell-based; details: Streptococcus agalactiae, 18 h; @ 20 g/disc; read-out: Inhibition zone diameter, Str 2875
Procedure: as §2

[13] = test system: Salmonella gallinarum (Mb 1287); assay: Agar diffusion disc assay, Salm 1287; type: cell-based; details: Salmonella enterica, GALLINARUM, 18 h; @ 20 g/disc; read-out: Inhibition zone diameter, Salm 1287
Procedure: as §2

[14] = test system: Escherichia coli (Mb 1418); assay: Agar diffusion disc assay, Coli 1418; type: cell-based; details: Escherichia coli, 18 h; @ 20 g/disc; read-out: Inhibition zone diameter, Coli 1418
Procedure: as §2

[15] = test system: Pseudomonas stutzeri (Mb 1231, ATCC 11607); assay: Agar diffusion disc assay, Pseu 1231; type: cell-based; details: Stutzerimonas stutzeri, ATCC11607, 18 h; @ 20 g/disc; read-out: Inhibition zone diameter, Pseu 1231
Procedure: as §2

[16] = test system: En terobacter aergenes (Mb 835); assay: Agar diffusion disc assay, Ent 835; type: cell-based; details: 18 h; @ 20 g/disc; read-out: Inhibition zone diameter, Ent 835
Procedure: as §2

[17] = ATCC9341, 18 h, @ 20 g/disc, read-out: Inhibition zone diameter, Micr 1101
[18] = ATCC9341, 25° C., ~18 hours, read-out: Mean of triplicate zone size versus Micrococcus luteus
[19] = ATCC9341, 20.0 μg/disc, 25° C., ~18 hours, read-out: Mean of triplicate zone size versus Micrococcus luteus

`CC(=O)OC1=Cc2nc(co2)C(=O)N2CCC=C2C(=O)O[C@H](C(C)C)[C@H](C)/C=C/C(=O)NC/C=C/C(C)=C/[C@@H](OC(C)=O)C1` [Example 1] was tested, and the IC50 [1] was 0.8 µM, the “A.R. = agonist ratio = IC50([3H]L365,260)/IC50([125I]CCK)” value [2] was > 25 and the “percentage in parentheses beside >3.0, [3H]L-365,260 (inhibition at top concentration, not defined)” value [2] was 13%. The IC50 [2] was > 3 µM, the IC50 [3] was > 3 µM and the IC50 [4] was > 3 µM. The zone of inhibition at 20 µg/disc [5] was 0 mm, the zone of inhibition at 20 µg/disc [6] was 9 mm and the zone of inhibition at 20 µg/disc [7] was 0 mm. The zone of inhibition at 20 µg/disc [8, 17] was 17 mm, the MIC ([8]; ATCC9341, 18 h) was 1.92 µM (≈ 1.17 µg/mL) and the zone of inhibition at 5 µg/disc [8, 18] was 12 mm. For the same compound, the zone of inhibition at 10 µg/disc [8, 18] was 15 mm, the zone of inhibition at 20 µg/disc [8, 19] was 16 mm and the zone of inhibition at 20 µg/disc [9] was 0 mm. It also gave a zone of inhibition at 20 µg/disc [10] of 14 mm, a zone of inhibition at 20 µg/disc [11] of 0 mm and a zone of inhibition at 20 µg/disc [12] of 0 mm. For the same compound, the zone of inhibition at 20 µg/disc [13] was 0 mm, the zone of inhibition at 20 µg/disc [14] was 0 mm and the zone of inhibition at 20 µg/disc [15] was 0 mm. It also gave a zone of inhibition at 20 µg/disc [16] of 0 mm.
With `CNC(=O)O[C@@H]1/C=C(C)/C=C/CNC(=O)/C=C/[C@@H](C)[C@@H](C(C)C)OC(=O)C2=CCCN2C(=O)c2coc(n2)CC(=O)C1` [Example 7] the IC50 [1] was 0.8 µM, the “A.R. = agonist ratio = IC50([3H]L365,260)/IC50([125I]CCK)” value [2] was 19 and the “percentage in parentheses beside >3.0, [3H]L-365,260 (inhibition at top concentration, not defined)” value [2] was 14%. The IC50 [2] was > 3 µM, the IC50 [3] was > 3 µM and the IC50 [4] was > 3 µM. It also gave a zone of inhibition at 20 µg/disc [5] of 7 mm, a zone of inhibition at 20 µg/disc [6] of 19 mm and a zone of inhibition at 20 µg/disc [7] of 0 mm. It also gave a zone of inhibition at 20 µg/disc [8, 17] of 27 mm, an MIC ([8]; ATCC9341, 18 h) of 1.74 µM (≈ 1.01 µg/mL) and a zone of inhibition at 1.25 µg/disc ([8]; ATCC9341, 1.25 μg/disc, 25° C., ~18 hours, read-out: Mean of triplicate zone size versus Micrococcus luteus) of 8 mm. For the same compound, the zone of inhibition at 2.5 µg/disc ([8]; ATCC9341, 2.50 μg/disc, 25° C., ~18 hours, read-out: Mean of triplicate zone size versus Micrococcus luteus) was 13 mm, the zone of inhibition at 5 µg/disc [8, 18] was 18 mm and the zone of inhibition at 10 µg/disc [8, 18] was 22 mm. The zone of inhibition at 20 µg/disc [8, 19] was 25 mm, the zone of inhibition at 20 µg/disc [9] was 11 mm and the zone of inhibition at 20 µg/disc [10] was 22 mm. The zone of inhibition at 20 µg/disc [11] was 10 mm, the zone of inhibition at 20 µg/disc [12] was 16 mm and the zone of inhibition at 20 µg/disc [13] was 0 mm. It also gave a zone of inhibition at 20 µg/disc [14] of 0 mm, a zone of inhibition at 20 µg/disc [15] of 0 mm and a zone of inhibition at 20 µg/disc [16] of 0 mm.
For `CC1=C\[C@@H](OC(=O)Nc2cccc([N+](=O)[O-])c2)CC(=O)Cc2nc(co2)C(=O)N2CCC=C2C(=O)O[C@H](C(C)C)[C@H](C)/C=C/C(=O)NC\C=C\1` [Example 9], the IC50 [1] was 0.4 µM, the “A.R. = agonist ratio = IC50([3H]L365,260)/IC50([125I]CCK)” value [2] was 12.9 and the IC50 [2] was 5.2 µM. The IC50 [3] was > 3 µM, the IC50 [4] was > 3 µM and the zone of inhibition at 20 µg/disc [5] was 0 mm. It also gave a zone of inhibition at 20 µg/disc [6] of 0 mm, a zone of inhibition at 20 µg/disc [7] of 0 mm and a zone of inhibition at 20 µg/disc [8, 17] of 8 mm. It also gave an MIC ([8]; ATCC9341, 18 h) of 0.82 µM (≈ 0.566 µg/mL), a zone of inhibition at 10 µg/disc [8, 18] of 8 mm and a zone of inhibition at 20 µg/disc [8, 19] of 9 mm. The zone of inhibition at 40 µg/disc ([8]; ATCC9341, 40.0 μg/disc, 25° C., ~18 hours, read-out: Mean of triplicate zone size versus Micrococcus luteus) was 10 mm, the zone of inhibition at 80 µg/disc ([8]; ATCC9341, 80.0 μg/disc, 25° C., ~18 hours, read-out: Mean of triplicate zone size versus Micrococcus luteus) was 11 mm and the zone of inhibition at 160 µg/disc ([8]; ATCC9341, 160 μg/disc, 25° C., ~18 hours, read-out: Mean of triplicate zone size versus Micrococcus luteus) was 11 mm. For the same compound, the zone of inhibition at 20 µg/disc [9] was 0 mm, the zone of inhibition at 20 µg/disc [10] was 0 mm and the zone of inhibition at 20 µg/disc [11] was 0 mm. The zone of inhibition at 20 µg/disc [12] was 0 mm, the zone of inhibition at 20 µg/disc [13] was 0 mm and the zone of inhibition at 20 µg/disc [14] was 0 mm. It also gave a zone of inhibition at 20 µg/disc [15] of 0 mm and a zone of inhibition at 20 µg/disc [16] of 0 mm.
